Like-named read-outs stand apart in the source and are kept apart here.
Tests used:
leukemic cells = assay: Biological activity (destruction of leukemic cells) of Piper betel fractions and HPLC peaks; format: cell-based; settings: fractions, zones and HPLC peaks of Piper betel leaf extract
Experimental: Collected material was examined for biological activity i.e. destruction of leukemic cells. […] 10 gm of above-mentioned material was loaded on Sephadex LH-20 column and chromatographed with water, water-methanol (1:1) and methanol as eluent. Three different fractions thus obtained from three different solvent systems were separately checked for biological activity. […] The column was equilibrated with methanol-water-acetic acid (23:76:1), flow rate was maintained at 1.0 ml per min and peaks were identified at 280 nm. According to the retention time (RE) different peaks could be divided into three zones, ZA/ZB and ZC (FIG. 1). ZA had 4 major peaks whereas ZB had very small to moderate 10 peaks and ZC had two distinct peaks. It was convenient to observe biological activity of three zones AA, ZB and ZC, which were separately tested on leukemia cells for destructive activity.

[1] = tested on: Erythroleukemic cell line (K562); assay: Incubation of CD33- erythroleukemic cell line K562 with CA/PCQ, viable cell count; format: cell-based; settings: for inhibition at 50 µg/mL: K562, 50.0 μg/ml; for inhibition at 100 µg/mL: K562, 100.0 μg/ml
Excerpt: This cell line was collected from American Type Culture Collection (ATCC), VA, USA. This cell line is […]. […] Cells were then washed and counted for viability.

[2] = tested on: Molt 4 (T lymphoid cell line); assay: Growth inhibition of T-lymphoid cell line Molt-4 by CA; format: cell-based
Excerpt: Culture of T-Lymphoid cell line Molt-4. This cell line was obtained from American Type culture collection (ATCC), VA, USA and grown in vitro as described for the cell line K562.

CML patient's PBMC = assay: Incubation of CML patient's PBMC (leukemic cells) with CA/PCQ, viable cell count; format: cell-based, human
Experimental: Whole blood (10 ml each) was drawn from previously diagnosed myeloid leukemic patients, one patient was diagnosed as AML and the other one was diagnosed as CML. Mononuclear cells were separated by Ficoll/hypaque density gradient centrifugation. […] Cells were then washed and counted for viability.

[3] = Homo sapiens, 24 h, 1 day, 1 × 10^5 cells per ml per well, read-out: Percentage inhibition of Cell Growth
[4] = Homo sapiens, 48 h, 2 days, 1 × 10^5 cells per ml per well, read-out: Percentage inhibition of Cell Growth
[5] = Homo sapiens, 72 h, 3 days, 1 × 10^5 cells per ml per well, read-out: Percentage inhibition of Cell Growth

SMILES: O=C(/C=C/c1ccc(O)c(O)c1)O[C@@H]1C[C@](O)(C(=O)O)C[C@@H](O)[C@H]1O (single isomer, unassigned) [CA, chlorogenic acid or 3-Caffeoyl quinic acid]
- biological activity i.e. destruction of leukemic cells (in words) (leukemic cells): Except peak no 6 (Rt 9.16 min) no other peaks had shown detectable activity
- inhibition at 10 µg/mL ([1]; Homo sapiens, 24 h, K562, 10.0 μg/ml, 1 day, 1 × 10^5 cells per ml per well, read-out: Percentage inhibition of Cell Growth): 8%
- inhibition at 25 µg/mL ([1]; Homo sapiens, 24 h, K562, 25.0 μg/ml, 1 day, 1 × 10^5 cells per ml per well, read-out: Percentage inhibition of Cell Growth): 20%
- inhibition at 50 µg/mL [1, 3]: 28%
- inhibition at 100 µg/mL [1, 3]: 84%
- inhibition at 10 µg/mL ([1]; Homo sapiens, 48 h, K562, 10.0 μg/ml, 2 days, 1 × 10^5 cells per ml per well, read-out: Percentage inhibition of Cell Growth): 48.1%
- inhibition at 25 µg/mL ([1]; Homo sapiens, 48 h, K562, 25.0 μg/ml, 2 days, 1 × 10^5 cells per ml per well, read-out: Percentage inhibition of Cell Growth): 63%
- inhibition at 50 µg/mL [1, 4]: 77.8%
- inhibition at 100 µg/mL [1, 4]: 98.1%
- inhibition at 10 µg/mL ([1]; Homo sapiens, 72 h, K562, 10.0 μg/ml, 3 days, 1 × 10^5 cells per ml per well, read-out: Percentage inhibition of Cell Growth): 85.2%
- inhibition at 25 µg/mL ([1]; Homo sapiens, 72 h, K562, 25.0 μg/ml, 3 days, 1 × 10^5 cells per ml per well, read-out: Percentage inhibition of Cell Growth): 92.6%
- inhibition at 25 µg/mL ([1]; Homo sapiens, 72 h, K562, 25.0 μg/ml, 3 days, 2×10^5 cells per ml per well, read-out: % Inhibition of cell growth (After 3 days of incubation)): 20%
- inhibition at 50 µg/mL [1, 5]: 100%
- inhibition at 50 µg/mL ([1]; Homo sapiens, 72 h, 3 days, 2×10^5 cells per ml per well, read-out: % Inhibition of cell growth (After 3 days of incubation)): 28%
- inhibition at 100 µg/mL [1, 5]: 100%
- inhibition at 10 µg/mL ([1]; Homo sapiens, K562, 10 μg/ml, 48 hr, 1 × 10^5 cells/ml/well, read-out: Percent inhibition of cell growth after 48 hr of incubation): 46.6%
- inhibition at 15 µg/mL ([1]; Homo sapiens, K562, 15 μg/ml, 48 hr, 1 × 10^5 cells/ml/well, read-out: Percent inhibition of cell growth after 48 hr of incubation): 93.3%
- inhibition at 20 µg/mL ([1]; Homo sapiens, K562, 20 μg/ml, 48 hr, 1 × 10^5 cells/ml/well, read-out: Percent inhibition of cell growth after 48 hr of incubation): 100%
- inhibition at 25 µg/mL ([1]; Homo sapiens, K562, 2×10^6/ml/well, 25 μg/ml, read-out: growth inhibition of leukemic cell lines): ≤ 20%
- destruction of cells (in words) ([1]; K562): destroyed
- destruction of cells (in words) [2]: requires higher dose
- growth inhibition of leukemic cell lines (CML patient's PBMC; CML leukemic cells, 2×10^6/ml/well, 25 μg/ml of CA): up to 2.38
- destruction of cells (in words) (CML patient's PBMC; CML patient's leukemic cells): destroyed
- inhibition at 50 µg/mL (CML patient's PBMC; Homo sapiens, 24 h, CML patient's PBMC, 50.0 μg/ml, 1 day, 1 × 10^5 cells per ml per well, read-out: Percentage inhibition of Cell Growth): 4.76%
- inhibition at 100 µg/mL (CML patient's PBMC; Homo sapiens, 24 h, CML patient's PBMC, 100.0 μg/ml, 1 day, 1 × 10^5 cells per ml per well, read-out: Percentage inhibition of Cell Growth): 9.52%
- inhibition at 50 µg/mL (CML patient's PBMC; Homo sapiens, 48 h, CML patient's PBMC, 50.0 μg/ml, 2 days, 1 × 10^5 cells per ml per well, read-out: Percentage inhibition of Cell Growth): 22.2%
- inhibition at 100 µg/mL (CML patient's PBMC; Homo sapiens, 48 h, CML patient's PBMC, 100.0 μg/ml, 2 days, 1 × 10^5 cells per ml per well, read-out: Percentage inhibition of Cell Growth): 45%
- inhibition at 50 µg/mL (CML patient's PBMC; Homo sapiens, 72 h, CML patient's PBMC, 50.0 μg/ml, 3 days, 1 × 10^5 cells per ml per well, read-out: Percentage inhibition of Cell Growth): 30%
- inhibition at 100 µg/mL (CML patient's PBMC; Homo sapiens, 72 h, CML patient's PBMC, 100.0 μg/ml, 3 days, 1 × 10^5 cells per ml per well, read-out: Percentage inhibition of Cell Growth): 55.6%
- inhibition at 25 µg/mL (CML patient's PBMC; Homo sapiens, PBMC, 72 h, CML patient's leukemic cells, 25.0 μg/ml, 3 days, 2×10^5 cells per ml per well, read-out: % Inhibition of cell growth (After 3 days of incubation)): 2.38%
- inhibition at 50 µg/mL (CML patient's PBMC; Homo sapiens, PBMC, 72 h, CML patient's leukemic cells, 50.0 μg/ml, 3 days, 2×10^5 cells per ml per well, read-out: % Inhibition of cell growth (After 3 days of incubation)): 4.67%
- inhibition at 20 µg/mL (CML patient's PBMC; Homo sapiens, CML patient's PBMC, 20 μg/ml, 48 hr, 1 × 10^5 cells/ml/well, read-out: Percent inhibition of cell growth after 48 hr of incubation): 5.8%
- inhibition at 50 µg/mL (CML patient's PBMC; Homo sapiens, CML patient's PBMC, 50 μg/ml, 48 hr, 1 × 10^5 cells/ml/well, read-out: Percent inhibition of cell growth after 48 hr of incubation): 10.3%
- inhibition at 100 µg/mL (CML patient's PBMC; Homo sapiens, CML patient's PBMC, 100 μg/ml, 48 hr, 1 × 10^5 cells/ml/well, read-out: Percent inhibition of cell growth after 48 hr of incubation): 22.5%
- inhibition at 500 µg/mL (CML patient's PBMC; Homo sapiens, CML patient's PBMC, 500 μg/ml, 48 hr, 1 × 10^5 cells/ml/well, read-out: Percent inhibition of cell growth after 48 hr of incubation): 32.3%

— patent US20030229140A1, “Herbal molecule as potential anti-leukemic drug” (priority 2002, published 2003)
